This passage reports inhibition results from patent US10106538B2, “Inhibitors of protein kinases” (PRINCETON DRUG DISCOVERY INC, priority 2015, dated 2018).

Some results are limits rather than exact numbers.

Experiment in all cases: Off-chip Mobility Shift Assay (MSA) kinase inhibition
Common to all, as to format: biochemical

One assay deals with T1, FLT1 (Homo sapiens, UniProt P17948).
T1 construct: purchased Carna Biosciences
Particulars: inhibitor concentration 1 μM. The method in brief:
(§1)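 Read-out: product/substrate peptide peak heights by off-chip mobility shift, expressed as P/(P+S). Reactions ran 1 or 5 h at room temperature in HEPES pH 7.5 buffer with Triton X100 and DTT. Percent inhibition referenced to full reaction (0%) and no-enzyme background (100%).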

The target in the next assay is T2, RET(Y791F) (Homo sapiens, UniProt P07949, Y791F).
T2 construct: purchased Carna Biosciences
The method in brief:
as §1

A further assay has as its target T3, PKD3 (Homo sapiens, UniProt O94806).
T3 construct: purchased Carna Biosciences
The settings on record: inhibitor concentration 1 μM. Put shortly: as §1

The target of a further assay is T4, MST4 (Homo sapiens, UniProt Q9P289).
T4 construct: purchased Carna Biosciences
Particulars: inhibitor concentration 1 μM. The method in brief:
as §1

The target of the next assay is T5, FGFR1 (Homo sapiens, UniProt P11362).
T5 construct: purchased Carna Biosciences
The settings on record: inhibitor concentration 1 μM. The method in brief: as §1

In another assay the target is T6, p38β (Homo sapiens, UniProt Q15759).
T6 construct: purchased Carna Biosciences
The settings on record: inhibitor concentration 1 μM. The method in brief:
as §1

The target in a further assay is T7, MST2 (Homo sapiens, UniProt Q13188).
T7 construct: purchased Carna Biosciences
T7 sequence (Q13188 1-491): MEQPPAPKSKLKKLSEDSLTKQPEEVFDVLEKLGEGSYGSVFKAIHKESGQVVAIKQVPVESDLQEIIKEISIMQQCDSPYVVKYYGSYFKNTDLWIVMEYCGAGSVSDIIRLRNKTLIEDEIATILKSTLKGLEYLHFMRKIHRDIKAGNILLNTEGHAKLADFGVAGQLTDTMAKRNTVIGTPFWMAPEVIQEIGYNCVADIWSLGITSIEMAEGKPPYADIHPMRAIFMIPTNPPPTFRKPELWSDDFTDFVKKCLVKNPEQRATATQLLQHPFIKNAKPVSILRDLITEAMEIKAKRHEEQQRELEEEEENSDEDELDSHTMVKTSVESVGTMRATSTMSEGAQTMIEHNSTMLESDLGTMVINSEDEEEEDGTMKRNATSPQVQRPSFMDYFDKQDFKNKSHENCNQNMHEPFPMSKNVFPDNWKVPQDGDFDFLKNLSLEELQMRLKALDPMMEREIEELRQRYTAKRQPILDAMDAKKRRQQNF
Put shortly: as §1

A further assay has as its target T8, MAP2K4 (Homo sapiens, UniProt P45985).
T8 construct: purchased Carna Biosciences
Particulars: inhibitor concentration 1 μM. Put shortly: as §1

The target in another assay is T9, ROCK1 (Homo sapiens, UniProt Q13464).
T9 construct: purchased Carna Biosciences
The settings on record: inhibitor concentration 1 μM. Put shortly:
as §1

The target in the next assay is T10, FLT4 (Homo sapiens, UniProt P35916).
T10 construct: purchased Carna Biosciences
Particulars: inhibitor concentration 1 μM. The method in brief:
as §1

A further assay addresses T11, PKD2 (Homo sapiens, UniProt Q9BZL6).
T11 construct: purchased Carna Biosciences
The settings on record: inhibitor concentration 1 μM. The method in brief: as §1

The next assay has as its target T12, ACK (Homo sapiens, UniProt Q07912).
T12 construct: purchased Carna Biosciences
Put shortly:
as §1

The target in a further assay is T13, MST1 (Homo sapiens, UniProt Q13043).
T13 construct: purchased Carna Biosciences
T13 sequence (Q13043 1-487): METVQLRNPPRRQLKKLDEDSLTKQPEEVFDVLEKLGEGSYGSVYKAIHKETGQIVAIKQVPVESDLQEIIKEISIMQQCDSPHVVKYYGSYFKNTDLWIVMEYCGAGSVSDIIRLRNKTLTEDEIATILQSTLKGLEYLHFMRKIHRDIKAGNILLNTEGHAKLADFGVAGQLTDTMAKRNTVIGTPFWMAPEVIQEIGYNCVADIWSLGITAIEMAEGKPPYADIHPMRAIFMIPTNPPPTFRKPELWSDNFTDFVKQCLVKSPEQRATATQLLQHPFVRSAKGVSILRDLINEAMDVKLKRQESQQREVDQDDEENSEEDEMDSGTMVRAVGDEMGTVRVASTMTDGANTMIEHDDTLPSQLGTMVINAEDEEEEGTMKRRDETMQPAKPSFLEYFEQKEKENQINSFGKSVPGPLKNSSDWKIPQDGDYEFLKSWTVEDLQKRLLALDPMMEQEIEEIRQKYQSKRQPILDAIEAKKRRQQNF
Put shortly:
as §1

Where [1] appears, read: inhibitor concentration 0.01 μM.

As usually defined, the inhibition is the change of the read-out against control, counted positive when it falls.

T12 sequence (Q07912 whole entry): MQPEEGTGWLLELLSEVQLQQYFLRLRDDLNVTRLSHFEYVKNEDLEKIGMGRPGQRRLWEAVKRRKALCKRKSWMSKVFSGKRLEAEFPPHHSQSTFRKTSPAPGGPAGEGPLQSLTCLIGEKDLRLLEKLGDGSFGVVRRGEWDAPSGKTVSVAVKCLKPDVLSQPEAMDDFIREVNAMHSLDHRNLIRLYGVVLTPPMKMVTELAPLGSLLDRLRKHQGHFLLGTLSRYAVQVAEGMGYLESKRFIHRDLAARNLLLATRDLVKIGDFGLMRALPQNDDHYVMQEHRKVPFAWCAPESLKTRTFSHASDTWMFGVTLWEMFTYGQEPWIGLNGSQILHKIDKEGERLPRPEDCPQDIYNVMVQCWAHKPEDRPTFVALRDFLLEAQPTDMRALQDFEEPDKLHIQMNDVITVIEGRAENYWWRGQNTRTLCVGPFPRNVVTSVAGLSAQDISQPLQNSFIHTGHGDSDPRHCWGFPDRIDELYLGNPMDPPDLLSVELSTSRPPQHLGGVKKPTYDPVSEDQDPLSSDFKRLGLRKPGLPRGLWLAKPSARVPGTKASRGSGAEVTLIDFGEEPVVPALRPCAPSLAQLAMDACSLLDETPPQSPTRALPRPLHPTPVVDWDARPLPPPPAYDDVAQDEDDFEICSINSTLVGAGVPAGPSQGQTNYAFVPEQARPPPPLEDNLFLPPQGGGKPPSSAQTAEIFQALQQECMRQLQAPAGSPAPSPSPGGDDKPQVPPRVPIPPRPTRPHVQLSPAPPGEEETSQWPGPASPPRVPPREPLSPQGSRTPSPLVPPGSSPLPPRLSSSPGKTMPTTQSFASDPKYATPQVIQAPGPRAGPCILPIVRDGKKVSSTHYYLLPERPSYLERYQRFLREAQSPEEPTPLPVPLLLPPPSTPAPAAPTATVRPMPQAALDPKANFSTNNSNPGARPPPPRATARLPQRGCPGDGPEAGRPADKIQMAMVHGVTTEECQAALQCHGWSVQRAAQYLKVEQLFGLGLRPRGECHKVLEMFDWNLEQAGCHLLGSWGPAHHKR
T2 sequence (P07949 29-1114 Y791F): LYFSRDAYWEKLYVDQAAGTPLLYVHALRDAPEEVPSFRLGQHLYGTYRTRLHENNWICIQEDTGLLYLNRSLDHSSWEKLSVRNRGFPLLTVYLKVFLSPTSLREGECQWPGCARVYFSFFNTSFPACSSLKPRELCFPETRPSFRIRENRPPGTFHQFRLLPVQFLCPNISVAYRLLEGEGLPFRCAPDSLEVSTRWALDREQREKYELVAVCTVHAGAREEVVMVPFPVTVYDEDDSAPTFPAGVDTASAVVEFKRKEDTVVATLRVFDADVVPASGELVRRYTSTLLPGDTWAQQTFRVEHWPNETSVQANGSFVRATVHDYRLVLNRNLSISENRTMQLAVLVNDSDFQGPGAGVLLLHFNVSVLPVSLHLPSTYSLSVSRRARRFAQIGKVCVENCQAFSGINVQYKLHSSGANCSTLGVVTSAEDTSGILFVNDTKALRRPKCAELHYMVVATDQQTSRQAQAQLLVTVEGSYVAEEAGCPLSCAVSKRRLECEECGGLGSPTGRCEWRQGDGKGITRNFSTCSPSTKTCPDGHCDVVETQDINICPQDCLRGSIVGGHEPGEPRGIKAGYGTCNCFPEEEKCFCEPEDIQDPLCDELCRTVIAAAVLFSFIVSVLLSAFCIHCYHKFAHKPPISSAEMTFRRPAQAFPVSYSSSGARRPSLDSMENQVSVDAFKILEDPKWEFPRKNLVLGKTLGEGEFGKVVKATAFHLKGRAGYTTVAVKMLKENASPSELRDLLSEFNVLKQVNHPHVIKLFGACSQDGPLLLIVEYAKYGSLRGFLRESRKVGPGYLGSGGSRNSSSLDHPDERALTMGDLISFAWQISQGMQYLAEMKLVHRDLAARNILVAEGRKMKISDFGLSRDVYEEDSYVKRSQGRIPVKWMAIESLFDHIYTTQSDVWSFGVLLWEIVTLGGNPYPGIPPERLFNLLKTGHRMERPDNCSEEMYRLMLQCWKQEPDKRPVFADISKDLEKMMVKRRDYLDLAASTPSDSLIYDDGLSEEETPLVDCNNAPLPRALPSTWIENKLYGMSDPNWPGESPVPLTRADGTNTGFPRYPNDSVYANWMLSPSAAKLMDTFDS
T5 sequence (P11362 22-822): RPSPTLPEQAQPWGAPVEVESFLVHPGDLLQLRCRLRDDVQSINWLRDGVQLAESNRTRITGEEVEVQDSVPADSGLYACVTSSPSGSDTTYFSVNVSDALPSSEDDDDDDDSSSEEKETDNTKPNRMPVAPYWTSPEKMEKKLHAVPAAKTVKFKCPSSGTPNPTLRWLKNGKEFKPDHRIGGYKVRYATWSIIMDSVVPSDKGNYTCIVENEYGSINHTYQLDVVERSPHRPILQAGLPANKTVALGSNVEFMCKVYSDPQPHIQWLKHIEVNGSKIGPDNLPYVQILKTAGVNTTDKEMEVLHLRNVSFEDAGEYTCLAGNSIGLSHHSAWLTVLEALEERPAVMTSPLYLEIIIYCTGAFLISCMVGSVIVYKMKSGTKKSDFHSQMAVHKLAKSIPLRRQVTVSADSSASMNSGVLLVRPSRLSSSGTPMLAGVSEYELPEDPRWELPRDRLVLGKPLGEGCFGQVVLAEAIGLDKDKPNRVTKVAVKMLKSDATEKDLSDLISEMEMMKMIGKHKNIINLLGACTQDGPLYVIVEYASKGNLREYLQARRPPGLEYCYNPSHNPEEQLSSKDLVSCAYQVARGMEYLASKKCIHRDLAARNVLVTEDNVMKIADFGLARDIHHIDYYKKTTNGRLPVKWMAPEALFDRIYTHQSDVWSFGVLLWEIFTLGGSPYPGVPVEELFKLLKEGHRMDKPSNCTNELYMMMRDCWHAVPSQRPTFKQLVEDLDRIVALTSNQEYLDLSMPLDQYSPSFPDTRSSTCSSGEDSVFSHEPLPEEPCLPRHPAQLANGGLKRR
T10 sequence (P35916 25-1363): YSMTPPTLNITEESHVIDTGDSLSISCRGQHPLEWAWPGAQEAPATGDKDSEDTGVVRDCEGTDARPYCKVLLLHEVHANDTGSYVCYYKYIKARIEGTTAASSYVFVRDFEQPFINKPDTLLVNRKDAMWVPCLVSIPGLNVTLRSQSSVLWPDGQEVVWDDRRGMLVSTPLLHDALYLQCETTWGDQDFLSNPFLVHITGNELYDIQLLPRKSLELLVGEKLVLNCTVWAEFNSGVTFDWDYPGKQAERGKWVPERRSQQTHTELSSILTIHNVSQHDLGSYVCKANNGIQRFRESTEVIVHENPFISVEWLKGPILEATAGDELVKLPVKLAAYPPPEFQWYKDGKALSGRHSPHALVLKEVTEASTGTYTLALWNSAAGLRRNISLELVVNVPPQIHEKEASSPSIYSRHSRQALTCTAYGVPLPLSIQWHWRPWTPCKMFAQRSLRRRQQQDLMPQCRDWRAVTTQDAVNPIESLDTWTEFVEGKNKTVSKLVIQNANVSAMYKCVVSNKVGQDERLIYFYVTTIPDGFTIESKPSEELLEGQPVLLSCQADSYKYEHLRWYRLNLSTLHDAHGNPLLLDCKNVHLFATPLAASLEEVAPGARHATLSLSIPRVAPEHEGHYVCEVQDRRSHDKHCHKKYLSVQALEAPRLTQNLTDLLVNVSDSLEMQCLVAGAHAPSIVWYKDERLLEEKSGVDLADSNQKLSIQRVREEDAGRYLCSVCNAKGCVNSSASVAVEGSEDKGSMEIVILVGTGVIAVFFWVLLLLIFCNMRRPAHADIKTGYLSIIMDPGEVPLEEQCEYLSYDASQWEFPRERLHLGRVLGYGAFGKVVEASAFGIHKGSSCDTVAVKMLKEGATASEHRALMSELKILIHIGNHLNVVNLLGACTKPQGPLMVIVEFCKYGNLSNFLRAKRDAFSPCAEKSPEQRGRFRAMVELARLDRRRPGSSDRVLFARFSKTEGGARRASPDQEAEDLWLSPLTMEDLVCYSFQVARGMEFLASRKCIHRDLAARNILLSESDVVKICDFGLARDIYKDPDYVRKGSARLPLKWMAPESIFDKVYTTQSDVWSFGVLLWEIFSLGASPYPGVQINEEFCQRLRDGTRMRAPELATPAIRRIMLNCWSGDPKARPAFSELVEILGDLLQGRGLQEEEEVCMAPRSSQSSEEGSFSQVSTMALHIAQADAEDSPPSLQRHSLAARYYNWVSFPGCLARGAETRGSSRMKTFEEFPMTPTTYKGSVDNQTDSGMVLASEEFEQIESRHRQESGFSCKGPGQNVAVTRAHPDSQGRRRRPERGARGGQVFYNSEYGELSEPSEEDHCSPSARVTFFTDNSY
T6 sequence (Q15759 whole entry): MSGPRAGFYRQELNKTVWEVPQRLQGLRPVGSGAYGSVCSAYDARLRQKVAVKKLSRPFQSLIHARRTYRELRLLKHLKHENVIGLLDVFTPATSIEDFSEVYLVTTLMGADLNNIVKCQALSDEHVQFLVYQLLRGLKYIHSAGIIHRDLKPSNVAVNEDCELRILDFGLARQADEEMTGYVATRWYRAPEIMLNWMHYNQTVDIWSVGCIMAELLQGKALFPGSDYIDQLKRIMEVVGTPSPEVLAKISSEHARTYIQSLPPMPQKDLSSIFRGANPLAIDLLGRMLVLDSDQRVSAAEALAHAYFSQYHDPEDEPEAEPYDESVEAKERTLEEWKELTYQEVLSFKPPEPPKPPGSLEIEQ
T8 sequence (P45985 whole entry): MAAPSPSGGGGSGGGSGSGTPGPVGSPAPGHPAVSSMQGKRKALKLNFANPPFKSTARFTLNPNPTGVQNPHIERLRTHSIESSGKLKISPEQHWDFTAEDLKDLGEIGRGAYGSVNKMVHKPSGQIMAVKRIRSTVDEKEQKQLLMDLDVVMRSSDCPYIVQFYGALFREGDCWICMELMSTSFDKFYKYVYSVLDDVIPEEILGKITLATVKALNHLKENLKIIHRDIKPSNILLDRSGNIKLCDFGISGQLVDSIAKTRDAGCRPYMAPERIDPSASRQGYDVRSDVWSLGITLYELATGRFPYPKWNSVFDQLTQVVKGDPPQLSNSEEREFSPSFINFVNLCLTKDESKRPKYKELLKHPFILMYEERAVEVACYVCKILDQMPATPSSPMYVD

Take `O=C(c1c(F)ccc(NS(=O)(=O)CCCO)c1F)c1c[nH]c2ncc(-c3ccc(Cl)cc3)cc12` [200-17, N-[3-[5-(4-chlorophenyl)-1H-pyrrolo[2,3-b]pyridine-3-carbonyl]-2,4-difluorophenyl]-3-hydroxypropane-1-sulfonamide]: the inhibition at 1 µM at FLT1 is over 50%; on RET(Y791F) (inhibitor concentration 1 μM), over 50%; at PKD3 it was under 50%; at MST4, under 50%; on FGFR1, over 50%; at p38β it was over 50%. Besides, the inhibition at 1 µM on MST2 (inhibitor concentration 1 μM) is over 50%; at MAP2K4, under 50%; on ROCK1, under 50%; at FLT4, over 50%; at PKD2 it was under 50%; on ACK (inhibitor concentration 1 μM), over 50%. Also, the inhibition at 1 µM at MST1 (inhibitor concentration 1 μM) was over 50%. In addition, the inhibition at 0.01 µM at RET(Y791F) (setting [1]), at MST2 (setting [1]), at ACK (setting [1]) and on MST1 (setting [1]) was under 30% in each case. Moreover, the inhibition at 0.1 µM on RET(Y791F) (inhibitor concentration 0.1 μM) is under 50%; on MST2 (inhibitor concentration 0.1 μM), under 50%; at ACK (inhibitor concentration 0.1 μM), under 50%; on MST1 (inhibitor concentration 0.1 μM), over 50%.
